Key:
WEE1 = target: T1, WEE1 (Homo sapiens, UniProt P30291+Q96SW2); experiment: Western-blot assay of substrate protein degradation in hPBMCs, WEE1; format: cell-based; conditions: 24 hours of compound treatment, compounds tested at 50 nM and 500 nM (concentration of the table not stated)
T1 construct: endogenous in cells; host or cells: hPBMCs (Milecell Biotechnologies)

IKZF1 = target: T2, IKZF1 (Homo sapiens, UniProt Q13422+Q96SW2); experiment: Western-blot assay of substrate protein degradation in hPBMCs, IKZF1; format: cell-based; conditions: 24 hours of compound treatment, compounds tested at 50 nM and 500 nM (concentration of the table not stated)
T2 construct: endogenous in cells; host or cells: hPBMCs (Milecell Biotechnologies)
T2 sequence (Q13422 whole entry): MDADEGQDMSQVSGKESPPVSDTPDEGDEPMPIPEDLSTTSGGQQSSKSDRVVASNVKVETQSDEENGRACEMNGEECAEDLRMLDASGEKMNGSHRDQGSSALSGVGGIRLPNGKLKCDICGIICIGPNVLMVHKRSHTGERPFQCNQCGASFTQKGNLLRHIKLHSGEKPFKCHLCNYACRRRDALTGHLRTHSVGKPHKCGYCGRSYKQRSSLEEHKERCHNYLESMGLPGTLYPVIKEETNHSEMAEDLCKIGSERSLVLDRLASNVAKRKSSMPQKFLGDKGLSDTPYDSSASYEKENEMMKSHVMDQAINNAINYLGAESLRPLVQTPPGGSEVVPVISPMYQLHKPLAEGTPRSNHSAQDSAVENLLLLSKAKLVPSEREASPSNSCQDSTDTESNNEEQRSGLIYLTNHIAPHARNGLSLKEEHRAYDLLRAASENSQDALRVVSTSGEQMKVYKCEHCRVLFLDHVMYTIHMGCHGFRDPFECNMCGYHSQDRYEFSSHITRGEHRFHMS
T2 sequence (Q96SW2 whole entry): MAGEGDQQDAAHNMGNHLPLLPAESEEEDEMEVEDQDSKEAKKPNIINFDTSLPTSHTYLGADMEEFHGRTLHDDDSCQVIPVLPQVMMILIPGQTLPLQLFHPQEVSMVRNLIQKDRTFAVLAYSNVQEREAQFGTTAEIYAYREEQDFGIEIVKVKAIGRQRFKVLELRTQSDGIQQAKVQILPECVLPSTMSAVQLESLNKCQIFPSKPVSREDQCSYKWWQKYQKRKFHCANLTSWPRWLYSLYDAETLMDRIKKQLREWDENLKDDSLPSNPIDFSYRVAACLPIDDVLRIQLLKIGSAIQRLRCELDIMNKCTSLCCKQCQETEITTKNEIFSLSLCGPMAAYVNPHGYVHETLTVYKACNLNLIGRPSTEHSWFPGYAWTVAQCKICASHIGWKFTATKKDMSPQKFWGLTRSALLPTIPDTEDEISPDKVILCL
T2 sequence (Q16531 whole entry partner): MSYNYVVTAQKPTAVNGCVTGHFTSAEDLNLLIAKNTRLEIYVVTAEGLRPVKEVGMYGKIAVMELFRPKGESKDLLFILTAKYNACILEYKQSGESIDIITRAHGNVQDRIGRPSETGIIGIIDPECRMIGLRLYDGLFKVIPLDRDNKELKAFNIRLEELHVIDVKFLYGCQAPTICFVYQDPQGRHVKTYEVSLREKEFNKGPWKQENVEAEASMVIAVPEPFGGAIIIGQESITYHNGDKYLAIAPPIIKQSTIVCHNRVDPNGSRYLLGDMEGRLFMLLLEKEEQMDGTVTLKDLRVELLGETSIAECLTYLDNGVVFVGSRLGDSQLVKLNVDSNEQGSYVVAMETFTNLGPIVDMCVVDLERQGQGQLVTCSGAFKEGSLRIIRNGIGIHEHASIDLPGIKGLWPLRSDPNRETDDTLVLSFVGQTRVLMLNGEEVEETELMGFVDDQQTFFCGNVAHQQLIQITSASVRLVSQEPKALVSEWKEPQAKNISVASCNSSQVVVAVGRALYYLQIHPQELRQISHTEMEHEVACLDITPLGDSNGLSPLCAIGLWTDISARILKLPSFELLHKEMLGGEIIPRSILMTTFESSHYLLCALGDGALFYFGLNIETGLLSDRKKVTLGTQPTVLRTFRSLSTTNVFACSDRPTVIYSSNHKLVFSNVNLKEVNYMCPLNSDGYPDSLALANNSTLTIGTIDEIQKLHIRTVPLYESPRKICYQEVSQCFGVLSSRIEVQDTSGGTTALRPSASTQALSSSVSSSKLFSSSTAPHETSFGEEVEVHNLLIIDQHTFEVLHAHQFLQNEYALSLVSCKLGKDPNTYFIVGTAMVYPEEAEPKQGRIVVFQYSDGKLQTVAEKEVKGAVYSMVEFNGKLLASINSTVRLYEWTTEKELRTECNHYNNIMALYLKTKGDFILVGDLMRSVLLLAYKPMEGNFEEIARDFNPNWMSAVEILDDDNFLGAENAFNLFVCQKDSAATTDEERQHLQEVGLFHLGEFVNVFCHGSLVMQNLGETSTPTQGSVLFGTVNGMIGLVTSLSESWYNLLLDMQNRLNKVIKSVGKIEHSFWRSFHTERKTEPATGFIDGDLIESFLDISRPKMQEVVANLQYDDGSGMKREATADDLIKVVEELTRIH

IKZF2 = target: T3, IKZF2 (Homo sapiens, UniProt Q96SW2+Q9UKS7); experiment: Western-blot assay of substrate protein degradation in hPBMCs, IKZF2; format: cell-based; conditions: 24 hours of compound treatment, compounds tested at 50 nM and 500 nM (concentration of the table not stated)
T3 construct: endogenous in cells; host or cells: hPBMCs (Milecell Biotechnologies)
T3 sequence (Q9UKS7 whole entry): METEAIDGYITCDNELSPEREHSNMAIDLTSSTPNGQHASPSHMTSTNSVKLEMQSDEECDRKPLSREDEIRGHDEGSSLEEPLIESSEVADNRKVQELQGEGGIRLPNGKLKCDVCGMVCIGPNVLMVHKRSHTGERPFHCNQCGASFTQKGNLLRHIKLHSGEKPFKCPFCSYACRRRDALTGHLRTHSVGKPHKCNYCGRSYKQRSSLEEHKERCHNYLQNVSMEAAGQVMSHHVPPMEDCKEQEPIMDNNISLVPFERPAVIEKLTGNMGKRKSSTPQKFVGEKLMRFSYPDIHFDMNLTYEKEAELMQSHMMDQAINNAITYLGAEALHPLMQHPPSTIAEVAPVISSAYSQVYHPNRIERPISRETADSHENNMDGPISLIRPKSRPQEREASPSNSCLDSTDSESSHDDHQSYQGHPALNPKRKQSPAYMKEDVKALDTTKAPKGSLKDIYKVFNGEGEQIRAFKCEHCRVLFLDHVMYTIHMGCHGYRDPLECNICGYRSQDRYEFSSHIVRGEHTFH
T3 sequence (Q96SW2 whole entry): as the sequence (Q96SW2 whole entry) above
T3 sequence (Q16531 whole entry partner): as the sequence (Q16531 whole entry partner) above

IKZF3 = target: T4, IKZF3 (Homo sapiens, UniProt Q96SW2+Q9UKT9); experiment: Western-blot assay of substrate protein degradation in hPBMCs, IKZF3; format: cell-based; conditions: 24 hours of compound treatment, compounds tested at 50 nM and 500 nM (concentration of the table not stated)
T4 construct: endogenous in cells; host or cells: hPBMCs (Milecell Biotechnologies)
T4 sequence (Q9UKT9 whole entry): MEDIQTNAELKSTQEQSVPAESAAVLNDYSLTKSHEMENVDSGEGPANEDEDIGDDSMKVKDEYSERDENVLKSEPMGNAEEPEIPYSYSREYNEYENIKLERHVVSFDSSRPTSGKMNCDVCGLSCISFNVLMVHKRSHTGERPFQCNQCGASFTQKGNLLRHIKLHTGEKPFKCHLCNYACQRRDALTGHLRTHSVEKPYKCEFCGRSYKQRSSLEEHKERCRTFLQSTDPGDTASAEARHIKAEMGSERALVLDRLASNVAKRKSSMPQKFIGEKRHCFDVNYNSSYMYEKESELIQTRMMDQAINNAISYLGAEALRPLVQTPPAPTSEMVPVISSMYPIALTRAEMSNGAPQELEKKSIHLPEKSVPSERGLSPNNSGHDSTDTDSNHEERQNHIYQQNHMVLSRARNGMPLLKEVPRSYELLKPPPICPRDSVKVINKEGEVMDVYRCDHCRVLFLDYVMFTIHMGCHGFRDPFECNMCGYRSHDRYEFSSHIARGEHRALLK
T4 sequence (Q96SW2 whole entry): as the sequence (Q96SW2 whole entry) above
T4 sequence (Q16531 whole entry partner): as the sequence (Q16531 whole entry partner) above

CK1α = target: T5, CK1α (Homo sapiens, UniProt P48729+Q96SW2); experiment: Western-blot assay of substrate protein degradation in hPBMCs, CK1α; format: cell-based; conditions: 24 hours of compound treatment, compounds tested at 50 nM and 500 nM (concentration of the table not stated)
T5 construct: endogenous in cells; host or cells: hPBMCs (Milecell Biotechnologies)
T5 sequence (P48729 whole entry): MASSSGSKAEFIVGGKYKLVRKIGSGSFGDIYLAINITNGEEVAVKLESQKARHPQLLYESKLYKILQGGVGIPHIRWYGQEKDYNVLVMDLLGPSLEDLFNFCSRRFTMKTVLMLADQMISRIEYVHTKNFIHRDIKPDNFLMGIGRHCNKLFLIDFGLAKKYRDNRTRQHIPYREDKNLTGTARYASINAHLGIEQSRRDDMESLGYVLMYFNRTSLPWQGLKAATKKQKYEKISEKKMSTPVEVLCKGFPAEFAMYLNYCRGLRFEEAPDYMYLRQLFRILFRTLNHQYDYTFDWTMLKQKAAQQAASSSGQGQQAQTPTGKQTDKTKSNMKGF
T5 sequence (Q96SW2 whole entry): as the sequence (Q96SW2 whole entry) above
T5 sequence (Q16531 whole entry partner): as the sequence (Q16531 whole entry partner) above

GSPT1 = target: T6, GSPT1 (Homo sapiens, UniProt P15170+Q96SW2); experiment: Western-blot assay of substrate protein degradation in hPBMCs, GSPT1; format: cell-based; conditions: 24 hours of compound treatment, compounds tested at 50 nM and 500 nM (concentration of the table not stated)
T6 construct: endogenous in cells; host or cells: hPBMCs (Milecell Biotechnologies)
T6 sequence (P15170 whole entry): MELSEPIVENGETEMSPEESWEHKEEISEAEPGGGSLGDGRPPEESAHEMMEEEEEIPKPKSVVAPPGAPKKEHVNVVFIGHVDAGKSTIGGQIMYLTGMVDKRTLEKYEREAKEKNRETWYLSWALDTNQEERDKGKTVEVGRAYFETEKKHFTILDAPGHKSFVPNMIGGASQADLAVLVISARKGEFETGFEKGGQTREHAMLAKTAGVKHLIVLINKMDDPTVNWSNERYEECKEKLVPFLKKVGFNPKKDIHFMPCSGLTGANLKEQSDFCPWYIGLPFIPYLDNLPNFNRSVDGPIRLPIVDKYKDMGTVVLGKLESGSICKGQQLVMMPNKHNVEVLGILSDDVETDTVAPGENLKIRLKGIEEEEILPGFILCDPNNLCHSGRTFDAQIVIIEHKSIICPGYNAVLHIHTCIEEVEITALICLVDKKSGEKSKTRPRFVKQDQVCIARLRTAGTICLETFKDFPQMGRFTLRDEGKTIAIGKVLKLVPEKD
T6 sequence (Q96SW2 whole entry): as the sequence (Q96SW2 whole entry) above
T6 sequence (Q16531 whole entry partner): as the sequence (Q16531 whole entry partner) above

[1] = target: T7, human Cereblon WT GST-tagged protein (Homo sapiens, UniProt Q96SW2); experiment: CRBN-binding affinity by HTRF (CEREBLON BINDING kit); conditions: HTRF inhibitory activity, CEREBLON BINDING kit; read-out: HTRF IC50
T7 construct: purchased CISBIO 64BDCRBNPEH
T7 sequence (Q96SW2 whole entry): as the sequence (Q96SW2 whole entry) above

Vcap = experiment: Tumor cell proliferation inhibition (CellTiter-Meiluncell Luminescent Cell Viability Assay), Vcap; conditions: Homo sapiens, 96 h, read-out: inhibitory activity (IC50, nM) against tumor cells proliferation, Vcap
SW620 = experiment: Tumor cell proliferation inhibition (CellTiter-Meiluncell Luminescent Cell Viability Assay), SW620; conditions: Homo sapiens, SW-620, 96 h, read-out: inhibitory activity (IC50, nM) against tumor cells proliferation, SW620
Jurkat = experiment: Tumor cell proliferation inhibition (CellTiter-Meiluncell Luminescent Cell Viability Assay), Jurkat; conditions: Homo sapiens, 96 h, read-out: inhibitory activity (IC50, nM) against tumor cells proliferation, Jurkat
CAL-62 = experiment: Tumor cell proliferation inhibition (CellTiter-Meiluncell Luminescent Cell Viability Assay), CAL-62; conditions: Homo sapiens, CAL-62, 96 h, read-out: inhibitory activity (IC50, nM) against tumor cells proliferation, CAL-62
CCRF-CEM = experiment: Tumor cell proliferation inhibition (CellTiter-Meiluncell Luminescent Cell Viability Assay), CCRF-CEM; conditions: Homo sapiens, 96 h, read-out: inhibitory activity (IC50, nM) against tumor cells proliferation, CCRF-CEM
TMD8 = experiment: Tumor cell proliferation inhibition (CellTiter-Meiluncell Luminescent Cell Viability Assay), TMD8; conditions: Homo sapiens, TMD8, 96 h, read-out: inhibitory activity (IC50, nM) against tumor cells proliferation, TMD8
[2] = system: Human acute T lymphocytic leukemia cells (Molt-4); experiment: Tumor cell proliferation inhibition (CellTiter-Meiluncell Luminescent Cell Viability Assay), Molt-4; conditions: MOLT-4, 96 h, read-out: inhibitory activity (IC50, nM) against tumor cells proliferation, Molt 4
NCI-H1975 = experiment: Tumor cell proliferation inhibition (CellTiter-Meiluncell Luminescent Cell Viability Assay), NCI-H1975; conditions: Homo sapiens, NCI-H1975, 96 h, read-out: inhibitory activity (IC50, nM) against tumor cells proliferation, H1975
[3] = system: Human breast cancer cells (MDA-MB-231); experiment: Tumor cell proliferation inhibition (CellTiter-Meiluncell Luminescent Cell Viability Assay), MDA-MB-231; conditions: MDA-MB-231, 96 h, read-out: inhibitory activity (IC50, nM) against tumor cells proliferation, MDA-MB-231

| Structure (SMILES) | Weel substrate protein remaining % (WEE1) | IKZF 1 substrate protein remaining % (IKZF1) | IKZF2 substrate protein remaining % (IKZF2) | IKZF3 substrate protein remaining % (IKZF3) | CK1a substrate protein remaining % (CK1α) | GSPT1 substrate protein remaining % (GSPT1) | IC50 [1] [nM] | IC50 (Vcap) [nM] | IC50 (SW620) [nM] | IC50 (Jurkat) [nM] | IC50 (CAL-62) [nM] | IC50 (CCRF-CEM) [nM] | IC50 (TMD8) [nM] | IC50 [2] [nM] | IC50 (NCI-H1975) [nM] | IC50 [3] [nM] |
| --- | --- | --- | --- | --- | --- | --- | --- | --- | --- | --- | --- | --- | --- | --- | --- | --- |
| O=C1CCC(N2Cc3cc(CN4CCN(c5nsc6ccccc56)CC4)ccc3C2=O)C(=O)N1 (stereo not shown) [GT-04255, 3-(5-((4-(benzo[d]isothiazol-3-yl)piperazin-1-yl)methyl)-1-oxoisoindolin-2-yl)piperidine-2,6-dione] | A (0% ≤ substrate protein remaining % ≤ 80%) | A (0% ≤ substrate protein remaining % ≤ 80%) | A (0% ≤ substrate protein remaining % ≤ 80%) | A (0% ≤ substrate protein remaining % ≤ 80%) | A (0% ≤ substrate protein remaining % ≤ 80%) | A (0% ≤ substrate protein remaining % ≤ 80%) | 500 to 1000 | 500 to 1000 | 100 to 500 | 100 to 500 | 50 to 100 | 10 to 50 | – | – | – | – |
| O=C1CCC(N2Cc3cc(CN4CC=C(c5ccoc5)CC4)ccc3C2=O)C(=O)N1 (stereo not shown) [GT-04589, 3-(5-((4-(furan-3-yl)-3,6-dihydropyridin-1(2H)-yl)methyl)-1-oxoisoindolin-2-yl)piperidine-2,6-dione] | B (80%< substrate protein remaining %≤ 100%) | B (80%< substrate protein remaining %≤ 100%) | A (0% ≤ substrate protein remaining % ≤ 80%) | B (80%< substrate protein remaining %≤ 100%) | B (80%< substrate protein remaining %≤ 100%) | A (0% ≤ substrate protein remaining % ≤ 80%) | < 500 | – | – | – | – | – | 500 to 1000 | 10 to 50 | 100 to 500 | 100 to 500 |
| Cc1nc(C2=CCN(Cc3ccc4c(c3)CN(C3CCC(=O)NC3=O)C4=O)CC2)c2ccsc2n1 (stereo not shown) [GT-04718, 3-(5-((4-(2-methylthieno[2,3-d]pyrimidin-4-yl)-3,6-dihydropyridin-1(2H)-yl)methyl)-1-oxoisoindolin-2-yl)piperidine-2,6-dione] | A (0% ≤ substrate protein remaining % ≤ 80%) | A (0% ≤ substrate protein remaining % ≤ 80%) | A (0% ≤ substrate protein remaining % ≤ 80%) | A (0% ≤ substrate protein remaining % ≤ 80%) | B (80%< substrate protein remaining %≤ 100%) | A (0% ≤ substrate protein remaining % ≤ 80%) | 500 to 1000 | – | – | – | – | – | 10 to 50 | 1 to 5 | 10 to 50 | 5 to 10 |
| O=C1CCC(N2Cc3cc(CN4CC=C(c5ncc6ccsc6n5)CC4)ccc3C2=O)C(=O)N1 (stereo not shown) [GT-04708, 3-(1-oxo-5-((4-(thieno[2,3-d]pyrimidin-2-yl)-3,6-dihydropyridin-1(2H)-yl)methyl)isoindolin-2-yl)piperidine-2,6-dione] | A (0% ≤ substrate protein remaining % ≤ 80%) | B (80%< substrate protein remaining %≤ 100%) | B (80%< substrate protein remaining %≤ 100%) | B (80%< substrate protein remaining %≤ 100%) | A (0% ≤ substrate protein remaining % ≤ 80%) | A (0% ≤ substrate protein remaining % ≤ 80%) | 500 to 1000 | – | – | – | – | – | 10 to 50 | 1 to 5 | 10 to 50 | 5 to 10 |
| Cc1ccsc1C1=CCN(Cc2cc(F)c3c(c2)CN(C2CCC(=O)NC2=O)C3=O)CC1 (stereo not shown) [GT-04730, 3-(7-fluoro-5-((4-(3-methylthiophen-2-yl)-3,6-dihydropyridin-1(2H)-yl)methyl)-1-oxoisoindolin-2-yl)piperidine-2,6-dione] | A (0% ≤ substrate protein remaining % ≤ 80%) | A (0% ≤ substrate protein remaining % ≤ 80%) | A (0% ≤ substrate protein remaining % ≤ 80%) | A (0% ≤ substrate protein remaining % ≤ 80%) | A (0% ≤ substrate protein remaining % ≤ 80%) | A (0% ≤ substrate protein remaining % ≤ 80%) | 500 to 1000 | – | – | – | – | – | 10 to 50 | 1 to 5 | 10 to 50 | 10 to 50 |
| O=C1CCC(N2Cc3cc(CN4CCC(c5ccsc5)CC4)ccc3C2=O)C(=O)N1 (stereo not shown) [GT-04586, 3-(1-oxo-5-((4-(thiophen-3-yl)piperidin-1-yl)methyl)isoindolin-2-yl)piperidine-2,6-dione] | B (80%< substrate protein remaining %≤ 100%) | B (80%< substrate protein remaining %≤ 100%) | A (0% ≤ substrate protein remaining % ≤ 80%) | B (80%< substrate protein remaining %≤ 100%) | B (80%< substrate protein remaining %≤ 100%) | A (0% ≤ substrate protein remaining % ≤ 80%) | 500 to 1000 | – | – | – | – | – | 100 to 500 | 5 to 10 | 100 to 500 | 10 to 50 |
| Cc1cc(C2=CCN(Cc3ccc4c(c3)CN(C3CCC(=O)NC3=O)C4=O)CC2)cs1 (stereo not shown) [GT-04587, 3-(5-((4-(5-methylthiophen-3-yl)-3,6-dihydropyridin-1(2H)-yl)methyl)-1-oxoisoindolin-2-yl)piperidine-2,6-dione] | A (0% ≤ substrate protein remaining % ≤ 80%) | A (0% ≤ substrate protein remaining % ≤ 80%) | A (0% ≤ substrate protein remaining % ≤ 80%) | A (0% ≤ substrate protein remaining % ≤ 80%) | B (80%< substrate protein remaining %≤ 100%) | A (0% ≤ substrate protein remaining % ≤ 80%) | 500 to 1000 | – | – | – | – | – | 10 to 50 | 1 to 5 | 5 to 10 | 1 to 5 |
| O=C1CCC(N2Cc3cc(CN4CC=C(c5c[nH]c6ncccc56)CC4)ccc3C2=O)C(=O)N1 (stereo not shown) [GT-04602, 3-(5-((4-(1H-pyrrolo[2,3-b]pyridin-3-yl)-3,6-dihydropyridin-1(2H)-yl)methyl)-1-oxoisoindolin-2-yl)piperidine-2,6-dione] | A (0% ≤ substrate protein remaining % ≤ 80%) | A (0% ≤ substrate protein remaining % ≤ 80%) | A (0% ≤ substrate protein remaining % ≤ 80%) | A (0% ≤ substrate protein remaining % ≤ 80%) | A (0% ≤ substrate protein remaining % ≤ 80%) | A (0% ≤ substrate protein remaining % ≤ 80%) | < 500 | – | – | – | – | – | 10 to 50 | 1 to 5 | 10 to 50 | 10 to 50 |
| Cc1ccsc1C1=CCN(Cc2ccc3c(c2F)CN(C2CCC(=O)NC2=O)C3=O)CC1 (stereo not shown) [GT-04729, 3-(4-fluoro-5-((4-(3-methylthiophen-2-yl)-3,6-dihydropyridin-1(2H)-yl)methyl)-1-oxoisoindolin-2-yl)piperidine-2,6-dione] | A (0% ≤ substrate protein remaining % ≤ 80%) | A (0% ≤ substrate protein remaining % ≤ 80%) | A (0% ≤ substrate protein remaining % ≤ 80%) | A (0% ≤ substrate protein remaining % ≤ 80%) | B (80%< substrate protein remaining %≤ 100%) | A (0% ≤ substrate protein remaining % ≤ 80%) | 500 to 1000 | – | – | – | – | – | 10 to 50 | 1 to 5 | 10 to 50 | 1 to 5 |
